In one experiment the test system is Mcl1. Kind of experiment: Western blot of Mcl-1 levels. The format is cell-based. As for the experimental part:
Total cell lysates were prepared by boiling and sonicating cell pellets in 1× Laemmli reducing sample buffer. To prepare detergent soluble and insoluble fractions, cells were lysed in cold isotonic lysis buffer [10 mM Tris-HCl (pH 7.5), 0.5% Triton X-100, 150 mM NaCl along with Mini-Complete and PhosSTOP] for 15 min on ice and centrifuged 10 min at 20,000 RCF. The clarified supernatant was used as the detergent soluble cell fraction. The residual pellet was washed and extracted in Laemmli reducing sample buffer and briefly sonicated to derive the detergent insoluble fraction. Equal volumes of cellular lysate or equal protein amounts were electrophoresed on SDS-PAGE gels and transferred to nitrocellulose membranes (Whatmann, Dassel, Germany). Proteins were detected by immunoblotting.
Whole cell lysates were prepared by boiling and sonicating the cell pellets in 1× Laemmli reducing sample buffer. To prepare detergent soluble and insoluble fractions, cells were lysed in cold isotonic lysis buffer [10 mM Tris-HCl (pH 7.5), 0.5% Triton X-100, 150 mM NaCl along with Mini-Complete and PhosSTOP] for 15 min on ice and centrifuged 10 minutes at 20,000 RCF. The clarified supernatant was used as a source of the detergent soluble cell fraction. The detergent insoluble fraction was extracted by the sonication of residual pellet in equal volumes of boiling 1× Laemmli reducing sample buffer. […]
On the technique in general: A western blot detects proteins with antibodies after separation by electrophoresis.

The next experiment has as its system Murine norovirus (MNV). Kind of experiment: Murine norovirus plaque assay. Type of experiment: cell-based. To be noted: Norwalk virus. The method, then: Viral titers were determined by plaque assay.
Cells were treated with IFN-β as a positive anti-viral control.

Experiment [1] relates to Vesicular Stomatitis Virus (VSV). Type of experiment: cell-based.
The next experiment has as its system Toxoplasma gondii. Put plainly: Toxoplasma gondii replication in human foreskin fibroblasts. The format is cell-based. As for the experimental part: Primary human foreskin fibroblasts (HFF) were infected with trachyzoites in the presence of WP1130 or vehicle control for 24 hours. […] 1.25×10^5 tachyziotes (RH strain) (MOI=1) were added to each well of a chamber slide in the presence of WP1130 or vehicle control. At 24 hours post infection, cells were fixed in 4% paraformaldehyde for fifteen minutes. Cells were then washed with PBS and analyzed by immunofluorescence microscopy. Parasites were stained with an anti-SAG 1 antibody (the immunodominant surface antigen of T. gondii) followed by an Alexa 594-labeled secondary antibody and DAPI. For quantitative analysis the number of parasites/vacuole were counted.
WP1130 also blocks the replication of the apicomplexan Toxoplasma gondii in primary human foreskin fibroblasts. Cells were treated with WP1130 and infected with tachyziotes (RH strain) (MOI 1) for 24 hr before performing immunofluorescence and counting parasite-containing vacuoles.

For the next experiment, the system named is cellular DUB activity. Kind of experiment: DUB activity of lysates from treated cells (Ub-AMC, Ub chain disassembly). Type of experiment: cell-based. As for the experimental part: Cells were lysed in ice cold DUB buffer containing 50 mM Tris-HCl, pH 7.5, 0.5% NP-40, 5 mM MgCl2, 150 mM NaCl and 1 mM phenylmethylsulfonylfluoride. Briefly, 5 μg of clarified lysate from untreated or treated cells was incubated with 500 nM Ub-AMC in a 100 μL reaction volume at 37° C. and the release of AMC fluorescence was recorded at ex/em 380/480 using a spectrofluorometer. USP9x was immunoprecipitated from 500 μg of cell lysate and incubated in DUB buffer containing NEM, WP1130 or DMSO in a 100 μL reaction volume for 30 min. The reaction was initiated by the addition of 500 nM Ub-AMC and the release of AMC-fluorescence was recorded.
In vitro disassembly of purified polyubiquitin chains (K-48/K-63 linked) was performed as previously described. Five μg of lysate from untreated or WP1130 treated cells were prepared in DUB buffer and incubated with K48- or K-63 linked chains (1 μg) for 10 min at 37° C. The extent of chain disassembly was assessed by ubiquitin immunoblotting.
Inhibition of cellular deubiquitinases could lead to an increase in high molecular weight ubiquitinated proteins in the absence of proteasome inhibition. […] To directly assess the impact of WP1130 on DUB activity in treated cells, cell lysates from control and treated cells were incubated with ubiquitin-AMC and fluorescence generated as a consequence of substrate cleavage was measured as an indicator of DUB activity.
The effect of WP1130 treatment on in vitro deubiquitination/disassembly of purified K48-linked or K63-linked polyubiquitin chains was evaluated. Lysates from WP1130 treated (2 hr) or untreated cells were incubated with 1 μg of unanchored polyubiquitin chains for 5, 10 and 15 min at 37° C.

For the next experiment, the target named is T1, UCH37 (Homo sapiens, UniProt Q9Y5K5).
T1 construct: endogenous in cells; host or cells: Z138
Kind of experiment: HA-UbVs labeling of UCH37. The format is cell-based. To be noted: Z138 cells, 1, 5 or 10 μM, 1 hour. As for the experimental part:
To assay for changes in activity of cellular deubiquitinase enzymes, Z138 and HEK293 cells were lysed in DUB buffer (50 mM Tris pH 7.4, 5 mM MgCl2, 150 mM NaCl) for 10 min at 4° C. The lysates were centrifuged at 20,000 RFC for 10 min and the supernatant was used for DUB labeling. Equal amounts of lysate were incubated with 500 ng of HA-UbVs for 1 hr at room temperature, followed by boiling in reducing sample buffer and resolving by SDS-PAGE. After protein transfer to nitrocellulose membranes, HA immunoblotting was used to detect DUB labeling.
Hemagglutinin-tagged ubiquitin vinyl methyl sulfone (HA-UbVs) acts as a DUB suicide substrate, forming a covalent adduct with active DUB enzymes. Specific cellular DUBs can be identified by anti-HA blotting, as previously shown in various cell types. Changes in specific DUB activities are measurable by monitoring HA-labeling in lysates from control and treated cells. Z138 cells were treated with WP1130 at 1, 5, or 10 μM or AG490 at 250 μM for 1 hours and lysed. 20 μg of clarified supernatant was incubated with 200 nM of HA-UbVS for 1 hr at 37° C. […] An in vitro analysis using cell lysates was performed to investigate direct DUB inhibition by WP1130. Briefly, untreated Z138 cell lysates were incubated with 5 μM WP1130 or vehicle alone for one hour at 37° C., followed by labeling with HA-UbVs.

Another experiment relates to La Crosse virus (LaCV). Kind of experiment: La Crosse virus plaque assay. The following applies: human neurons (Be2-c), 5 μM, 30 min pre-treatment.
Setting [2] is: primary human foreskin fibroblasts, RH strain MOI 1, 24 hr.

pEC50: −log10 of the molar value.

T1 sequence (Q9Y5K5 whole entry): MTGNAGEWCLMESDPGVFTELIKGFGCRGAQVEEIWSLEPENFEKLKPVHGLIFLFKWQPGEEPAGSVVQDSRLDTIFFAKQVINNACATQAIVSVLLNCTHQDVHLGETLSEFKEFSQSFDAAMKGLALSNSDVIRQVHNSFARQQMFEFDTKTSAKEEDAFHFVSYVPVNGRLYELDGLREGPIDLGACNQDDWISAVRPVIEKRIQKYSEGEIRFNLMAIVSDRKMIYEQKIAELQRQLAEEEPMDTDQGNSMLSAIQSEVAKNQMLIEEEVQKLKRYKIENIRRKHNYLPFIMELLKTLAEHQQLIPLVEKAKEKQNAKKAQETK

What is called pEC50 is the EC50 on a negative log10 scale, so that one unit is a factor of ten. `CCC[C@H](NC(=O)/C(C#N)=C/c1cccc(Br)n1)c1ccccc1` [WP1130]: the MCL-1 levels entry in the experiment on Mcl1 (Z138 cells) is “rapid decline”. Moreover, the Mcl-1 levels entry in the experiment with Mcl1 (imatinib sensitive and resistant CML cells) is listed as “reduced”. Besides, in the experiment on Murine norovirus (MNV) (RAW264.7, MNV, murine macrophages (RAW264.7 or bone marrow derived), 5 μM, 30 min pre-treatment, 8-12 hr, read-out: Log inhibition by plaque assay), the log reduction at 5 µM was about 2. The pEC50 with Murine norovirus (MNV) (RAW264.7, MNV-1, RAW 264.7, 12 hours postinfection, read-out: anti-viral EC50 activity) is 5.72. Further, the “block of virus infection” value in experiment [1] is listed as “not”. The “number of parasites per vacuole” value in the experiment with Toxoplasma gondii (HFF, 5 μM, 24 hours post infection) was “significantly reduced”. Besides, in the experiment on Toxoplasma gondii (setting [2]), the “decrease in the vacuoles containing 4 parasites” value is about 5 fold and the “increase in the number of vacuoles containing only 1 parasite” value is about 3 fold. The “Ub-AMC hydrolyzing activity of lysates from treated cells” value in the experiment on cellular DUB activity (CML cells, WP1130 1-8 hours) is “limited effects”. For the same molecule, the “reduction of DUB activity (ubiquitin-AMC)” value in the experiment with cellular DUB activity (Z138 cells, 5 μM WP1130 or 50 nM bortezomib, by 4 hours) is on record as about 50%. Besides, the “disassembly of K48-/K63-linked polyubiquitin chains by lysates” value in the experiment with cellular DUB activity (lysates from cells treated 2 hr) is recorded as “limited disassembly”. At UCH37, the “HA-UbVS labeling of UCH37” value was “dose-dependent and time reduction in the labeling”. Also, the “Log inhibition by plaque assay” value in the experiment with La Crosse virus (LaCV) is on record as 2-2.5 log. Further, the “Log inhibition by plaque assay” value in the experiment on La Crosse virus (LaCV) (listed as HWP1130) was found to be 2.5 log.

The values above are taken from US8809377B2, “Deubiquitinase inhibitors and methods for use of the same” (The Regents of the University of Michigan, priority 2010, dated 2014).
